“Also recorded” adds a separate entry of the source. Where a SMILES comes first, the peptide text is derived from it. The star is where a group is joined. Cbz = O=C(OCc1ccccc1)*
Experiments:
[1] = test system: human RA myocytes; test: Action potential duration (APD) and APD rate adaptation in isolated human right atrial myocytes; format: cell-based
Excerpt: All abbreviations are as defined in FIG. 1.
9b. […] Representative AP traces in RA myocytes from patients in SR exposed to 2 doses of 4-AP in the presence or absence of nNOS inhibition with SMTC.
A shorter APD leads to reduced atrial refractoriness and promote AF sustainability. […] These findings indicate that loss of myocardial nNOS signalling is sufficient to produce an atrial electrical substrate that increases both the inducibility and maintenance of AF.

[2] = test system: nNOS protein; test: nNOS protein in human atrial tissue in AF after inhibition of the proteosomal system or autophagy; format: cell-based; settings: human RA, MG132 5 μmol/L, bafilomycin 25 nmol/L
Method: In the presence of AF, ubiquitination of nNOS protein is increased in human atrial tissue as shown by immunoprecipitation. Protein load of AF samples was increased to match the nNOS content to that seen in SR; n=6 (a). […] All abbreviations are as defined in FIG. 1.
In the skeletal muscle, nNOS protein stability is determined by the enzyme's anchoring to the dystrophin-syntrophin complex. We found a reduction in dystrophin (FIG. 4c, 4d, 4f) and dystrophin-associated proteins (e.g., caveolin-3 and α1-syntrophin, 4c, 4e), and a disruption of the dystrophin-nNOS complex in AF (FIG. 4a, 4b). In humans, atrial nNOS and dystrophin were strongly correlated (FIG. 4g), in keeping with the notion that disruption of the dystrophin-syntrophin complex promotes ubiquitin-dependent nNOS degradation in AF.

[3] = test system: DYS mRNA; test: DYS mRNA (gene expression) in transfected human atrial myocytes; format: cell-based; settings: for DYS mRNA (expression): SR myocytes, mimic 10 nM, 72 hours (FIG. 10)
Excerpt: (§1) By contrast, treatment with miR31 mimic has no effect on the DYS mRNA in either SR (n=12) or AF (n=10). *P<0.05, **P<0.01 ***P<0.001 vs controls in SR and #P<0.05, ##P[…], ###P<0.001 vs negative control (NC) using 1-way ANOVA with Bonferroni correction. Dystrophin and nNOS gene expression were normalized to GAPDH.
(§2) 12g-m. […] By contrast, miR31 mimic has no effect on the decay of the DYS mRNA (h).

[4] = test system: nNOS mRNA; test: nNOS mRNA (gene expression) in transfected human atrial myocytes; format: cell-based
Excerpt: as §1, §2

[5] = test system: nNOS protein; test: nNOS protein content (immunoblot) in transfected human atrial myocytes; format: cell-based
Excerpt: (§3) RQ—relative quantification, DYS—dystrophin; all other abbreviations are as defined in FIG. 1.
as §1, §2

[6] = test system: dystrophin (DYS) protein; test: Dystrophin protein content (immunoblot) in transfected human atrial myocytes; format: cell-based
[7] = test system: nNOS mRNA on the RISC complex; test: Ribonucleoprotein immunoprecipitation with Ago2 (RISC), nNOS mRNA; format: cell-based, human; settings: RA myocytes from AF patients; TSB 20 nM, 48-72 hours; normalized to miR31 in RISC
Method: 12a-b. (a) Immunoprecipitation of the RNA-induced silencing effector complex (RISC) protein, Argonaut 2 (Ago2) in RAA myocytes isolated from patients with AF transiently (48-72 hours) transfected with 20 nM of an locked nucleic acids (LNA)-based miR31 target site blocker (TSB, Exiqon) or with corresponding scrambled control (scr, 20 nM, Exiqon). Further details on the sequence of the TSB and scr control, also see FIG. 13). Molecular weight is shown in kilodalton (kDa); Rb IgG—rabbit immunoglobulin G (as negative control); IP—immunoprecipitation, IB—immunoblotting. (b) miR31 expression is unchanged in Ago2 immunoprecipitates from RAA human myocytes.
12c-f. (c) Sequence of the mature human miR31 (hsa-miR31), 23-nucleotide region of the human DYS-3′UTR, the miR31 hairpin inhibitor (anti-miR31, miRIDIAN, Dharmacon) and the 18-nucleotide-long locked nucleic acids (LNA)-based Target Site Blocker (TSB) covering the miR31-binding site on the DYS-3′UTR (TSB_DYS). (d) Sequences of the mature hsa-miR-31, 23-nucleotide region of the human nNOS-3′UTR, the anti-miR31 (miRIDIAN, Dharmacon) and the 18-nucleotide-long TSB covering the miR31-binding site on the nNOS 3′UTR (TSB_nNOS). The miR-31 seed sequence is in grey. […]
(§4) The corresponding mRNA stability was assessed in the presence of a miR-31 mimic (10 nM) in SR myocytes treated with the transcription inhibitor, actinomycin D (5 μg/ml).

[8] = test system: DYS mRNA; test: DYS mRNA stability in the presence of actinomycin D; format: cell-based, human; settings: SR myocytes; actinomycin D 5 μg/ml; mimic 10 nM; listed as miR31 mimic
Method: as §2, §4

[9] = test system: miR-31; test: miR-31 expression in transfected isolated human atrial myocytes; format: cell-based; settings: for miR31 levels: RAA myocytes; for miR-31 expression: 20 nM, 48-72 hours
Excerpt: as §3
8a. […] Data are expressed as fold change to the controls in SR.
as §1
We hypothesised that a microRNA-mediated translational repression of dystrophin in AF may account for the loss of myocardial nNOS and constitute a novel mechanism underlying AF-induced electrical remodelling.

[10] = test system: human nNOS 3′UTR; test: GFP reporter assay in HEK293 cells, nNOS 3′UTR constructs; format: cell-based; settings: HEK293, co-transfected 48 hours, mimic 10 nM
Method: 11a. Predicted conserved (site 1) and poorly conserved (sites 2, 3, 4 and 5) miR31-5p binding sites on the human nNOS 3′UTR.
11b. HEK293 cells were co-transfected (48 hours) with reporter constructs containing 2 fragments (˜500 bp) of the nNOS 3′UTR region containing the mir31 binding putative sites (Part1, site 1 & 2 and Part2, sites 3, 4 & 5) and a miR31 mimic (10 nM, miRIDIAN, Dharmacon). […] Further analysis of Part 2, identified site 5 as the functional mir31 site on the nNOS 3′ UTR.

[11] = test system: nNOS mRNA; test: nNOS mRNA stability in the presence of actinomycin D; format: cell-based, human; settings: SR myocytes; actinomycin D 5 μg/ml; mimic 10 nM
Method: as §2, §4

[12] = test system: DYS 3′UTR; test: GFP reporter assay in HEK293 cells, DYS 3′UTR construct; format: cell-based, human; settings: HEK293, co-transfected 48 hours
Method: 11c. HEK293 cells were co-transfected (48 hours) with reporter constructs containing the DYS 3′UTR region containing the mir31 binding putative site. […] Reporter assays were performed in triplicates and are representative of at least 3 independent experiments. ###P<0.001 vs vehicle, repeated-measure ANOVA with Bonferroni correction.

[13] = myocytes from patients with AF, 20 nM, 48-72 hours
[14] = myocytes from patients with AF, 20 nM, 48-72 hours, listed as nNOS-TSB
[15] = SR myocytes, mimic 10 nM, 72 hours (FIG. 10), listed as miR31 mimic
[16] = SR myocytes, mimic 10 nM, 72 hours (FIG. 10), listed as miRIDIAN miR-31 mimic
[17] = myocytes from patients in SR, 20 nM, 48-72 hours
[18] = SR myocytes, mimic 10 nM, 72 hours

## Nc1ccncc1 [4-AP]
[1]; RA myocytes from patients in SR, 2 doses of 4-AP (100 and 500)
  APD: prolong APD
[1]; RA myocytes from patients in SR, 4-AP 100 and 500, with or without SMTC
  difference in APD induced by SMTC: abolish the difference in APD induced by SMTC
[1]; human RA myocytes, 4-AP
  APD rate dependent adaptation: restores the APD rate dependent adaptation

## CC(C)C[C@@H](C=O)NC(=O)[C@H](CC(C)C)NC(=O)[C@H](CC(C)C)NC(=O)OCc1ccccc1 [MG132] (Cbz-Leu-Leu-Leu-aldehyde)
[2]
  nNOS protein content: partially restores nNOS protein; also recorded: partially restored nNOS content

## CO/C1=C\C(C)=C\[C@@H](C)[C@@H](O)[C@@H](C)C/C(C)=C/C=C/[C@H](OC)[C@@H]([C@@H](C)[C@@H](O)[C@H](C)[C@@]2(O)C[C@@H](O)[C@H](C)[C@@H](C(C)C)O2)OC1=O [bafilomycin A1]
[2]; listed as bafilomycin
  nNOS protein content: had no effect

## TSB_nNOS: 18-nucleotide-long TSB covering the miR31-binding site on the nNOS 3′UTR (LNA-based, Exiqon) (DNA TGGCAAGAATGAAAAGGC; LNA-based target site blocker, LNA pattern not given here)
[3]; [13]
  DYS mRNA: without affecting
[4]; [13]
  nNOS mRNA (gene expression): increased nNOS mRNA
[4]; [14]
  nNOS mRNA (gene expression): significantly increased
[5]; [13]
  nNOS protein content: partially recovered nNOS protein
[5]; [14]
  nNOS protein content: recovered nNOS
[6]; [13]
  dystrophin (DYS) protein content: without affecting
[7]
  loading of nNOS mRNA on the RISC complex (Ago2 immunoprecipitation): selectively prevented loading; also recorded: reduction

## miR-31 mimic: miRIDIAN miR-31 mimic (Dharmacon) (AGGCAAGATGCTGGCATAGCT; listed as DNA, chemistry not given here)
[8]
  decay of DYS mRNA: has no effect
[9]; AF, mimic (FIG. 10)
  miR31 levels: increases mir31 levels
[9]; SR, mimic 10 nM, 72 hours (FIG. 10)
  miR31 levels: increases mir31 levels
[9]; myocytes from patients in SR
  miR-31 expression: upregulation of miR-31
[9]; myocytes from patients with AF
  miR-31 expression: upregulation of miR-31
[3]; AF myocytes, mimic (FIG. 10)
  DYS mRNA: has no effect
[3]; listed as miR31 mimic
  DYS mRNA (expression): has no effect
[3]; listed as miRIDIAN miR-31 mimic
  DYS mRNA (expression): without affecting
[4]; AF myocytes, mimic (FIG. 10)
  nNOS gene expression: reduces
[4]; [15]
  nNOS mRNA (gene expression): reduces
[4]; [16]
  nNOS mRNA (gene expression): reduced
[5]; AF myocytes, mimic (FIG. 10)
  nNOS protein: reduces
[5]; [15]
  nNOS protein content: reduces
[5]; [16]
  nNOS protein content: reduced
[5]; [17]
  nNOS protein content: dramatically reduced
[5]; [13]
  nNOS protein content: dramatically reduced
[6]; AF myocytes, mimic (FIG. 10)
  dystrophin protein: reduces
[6]; [15]
  dystrophin (DYS) protein content: reduces
[6]; [16]
  dystrophin (DYS) protein content: reduced
[6]; [17]
  dystrophin (DYS) protein content: dramatically reduced
[6]; [13]
  dystrophin (DYS) protein content: dramatically reduced
[10]
  GFP fluorescence, wild type (WT) Part 2 nNOS 3′UTR construct: reduction in miR31-mediated GFP fluorescence
  reduction in GFP fluorescence, mutated (Mut) nNOS 3′UTR constructs lacking miR31 binding site: abolished
[1]; [18]
  APD: shortened APD
  APD rate-dependent adaptation: abolished the APD rate-dependent adaptation
[11]
  decay of nNOS mRNA: accelerated the decay of nNOS mRNA
[12]
  GFP fluorescence, wild type (WT) DYS 3′UTR construct: reduction in miR31-mediated GFP fluorescence
  reduction in GFP fluorescence, mutated (Mut) DYS 3′UTR constructs lacking miR31 binding site: abolished

Source: US20160108431A1, “PREVENTION AND TREATMENT OF ATRIAL FIBRILLATION” (ISIS INNOVATION LIMITED, priority 2013, published 2016)
